# PubChem BioAssay (NCI)
#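 Following 48 hours of exposure in 96-well plates, responses at five concentrations were used to interpolate endpoints linearly. GI50 marks 50% less growth. TGI is the concentration that stops growth completely.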
# How the values were obtained:
# Test in all cases: inhibition of tumour cell growth, NCI panel, 48 h
# SF-539 CNS = test system: SF-539 CNS
# SN12C renal = test system: SN12C renal
# SK-OV-3 ovarian = test system: SK-OV-3 ovarian
# MOLT-4 leukemia = test system: MOLT-4 leukemia
# UO-31 renal = test system: UO-31 renal
# MDA-MB-231 breast = test system: MDA-MB-231 breast
# HOP-92 NSCLC = test system: HOP-92 NSCLC
# OVCAR-4 ovarian = test system: OVCAR-4 ovarian
# RPMI-8226 leukemia = test system: RPMI-8226 leukemia
# ACHN renal = test system: ACHN renal
# T-47D breast = test system: T-47D breast
# 786-0 renal = test system: 786-0 renal
# MALME-3M melanoma = test system: MALME-3M melanoma
# UACC-257 melanoma = test system: UACC-257 melanoma
# A498 renal = test system: A498 renal
# NCI-H23 lung = test system: NCI-H23 lung
# M14 melanoma = test system: M14 melanoma
# SK-MEL-5 melanoma = test system: SK-MEL-5 melanoma
# CCRF-CEM leukemia = test system: CCRF-CEM leukemia
# OVCAR-5 ovarian = test system: OVCAR-5 ovarian
# K-562 leukemia = test system: K-562 leukemia
# OVCAR-3 ovarian = test system: OVCAR-3 ovarian
# CAKI-1 renal = test system: CAKI-1 renal
# SF-268 CNS = test system: SF-268 CNS
# HOP-62 NSCLC = test system: HOP-62 NSCLC
# A549 NSCLC = test system: A549 NSCLC
# OVCAR-8 ovarian = test system: OVCAR-8 ovarian
# SK-MEL-2 melanoma = test system: SK-MEL-2 melanoma
# HS 578T breast = test system: HS 578T breast
compound,measurement,setting,value
CCCn1cnc2c(c1=N)C(c1ccc(F)cc1)c1sc3c(C)cccc3c1O2 (stereo not drawn),GI50,SF-539 CNS,1.16 µM
same,TGI,SF-539 CNS,5.07 µM
same,GI50,SN12C renal,2.94 µM
same,TGI,SN12C renal,14.9 µM
same,GI50,SK-OV-3 ovarian,2.23 µM
same,TGI,SK-OV-3 ovarian,38.8 µM
same,GI50,MOLT-4 leukemia,3.48 µM
same,TGI,MOLT-4 leukemia,> 54.2 µM
same,GI50,UO-31 renal,0.662 µM
same,TGI,UO-31 renal,15.1 µM
same,GI50,MDA-MB-231 breast,3.09 µM
same,TGI,MDA-MB-231 breast,15.7 µM
same,GI50,HOP-92 NSCLC,0.458 µM
same,TGI,HOP-92 NSCLC,7.5 µM
same,GI50,OVCAR-4 ovarian,2.79 µM
same,TGI,OVCAR-4 ovarian,> 42.5 µM
same,GI50,RPMI-8226 leukemia,0.961 µM
same,TGI,RPMI-8226 leukemia,7.91 µM
same,GI50,ACHN renal,1.45 µM
same,TGI,ACHN renal,16.1 µM
same,GI50,T-47D breast,1.97 µM
same,TGI,T-47D breast,41.9 µM
same,GI50,786-0 renal,1.08 µM
same,TGI,786-0 renal,14.5 µM
same,GI50,MALME-3M melanoma,2.66 µM
same,TGI,MALME-3M melanoma,24.2 µM
same,GI50,UACC-257 melanoma,15.6 µM
same,TGI,UACC-257 melanoma,39.5 µM
same,GI50,A498 renal,0.584 µM
same,TGI,A498 renal,3.95 µM
same,GI50,NCI-H23 lung,1.62 µM
same,TGI,NCI-H23 lung,10.9 µM
same,GI50,M14 melanoma,0.637 µM
same,TGI,M14 melanoma,11.3 µM
same,GI50,SK-MEL-5 melanoma,1.25 µM
same,TGI,SK-MEL-5 melanoma,11.9 µM
same,GI50,CCRF-CEM leukemia,1.03 µM
same,TGI,CCRF-CEM leukemia,> 43.8 µM
same,GI50,OVCAR-5 ovarian,3.66 µM
same,TGI,OVCAR-5 ovarian,18.4 µM
same,GI50,K-562 leukemia,0.358 µM
same,TGI,K-562 leukemia,22.6 µM
same,GI50,OVCAR-3 ovarian,0.815 µM
same,TGI,OVCAR-3 ovarian,10.6 µM
same,GI50,CAKI-1 renal,0.546 µM
same,TGI,CAKI-1 renal,> 39.5 µM
same,GI50,SF-268 CNS,2.71 µM
same,TGI,SF-268 CNS,21.9 µM
same,GI50,HOP-62 NSCLC,2.08 µM
same,TGI,HOP-62 NSCLC,31.1 µM
same,GI50,A549 NSCLC,2.15 µM
same,TGI,A549 NSCLC,> 48.8 µM
same,GI50,OVCAR-8 ovarian,3.79 µM
same,TGI,OVCAR-8 ovarian,31 µM
same,GI50,SK-MEL-2 melanoma,5.41 µM
same,TGI,SK-MEL-2 melanoma,30.1 µM
same,GI50,HS 578T breast,0.961 µM
same,TGI,HS 578T breast,14.3 µM
